From ChEMBL document CHEMBL1131355 (Bioorg Med Chem Lett, 1998) come the findings set out here.

Each structure is given as a SMILES string.

The target in this assay is 5-hydroxytryptamine receptor 2A (Rattus norvegicus, UniProt P14842). Briefly: biochemical. The class given is tissue-based, Frontal cortex, Membrane.
5-hydroxytryptamine receptor 2A, sequence (P14842 whole entry): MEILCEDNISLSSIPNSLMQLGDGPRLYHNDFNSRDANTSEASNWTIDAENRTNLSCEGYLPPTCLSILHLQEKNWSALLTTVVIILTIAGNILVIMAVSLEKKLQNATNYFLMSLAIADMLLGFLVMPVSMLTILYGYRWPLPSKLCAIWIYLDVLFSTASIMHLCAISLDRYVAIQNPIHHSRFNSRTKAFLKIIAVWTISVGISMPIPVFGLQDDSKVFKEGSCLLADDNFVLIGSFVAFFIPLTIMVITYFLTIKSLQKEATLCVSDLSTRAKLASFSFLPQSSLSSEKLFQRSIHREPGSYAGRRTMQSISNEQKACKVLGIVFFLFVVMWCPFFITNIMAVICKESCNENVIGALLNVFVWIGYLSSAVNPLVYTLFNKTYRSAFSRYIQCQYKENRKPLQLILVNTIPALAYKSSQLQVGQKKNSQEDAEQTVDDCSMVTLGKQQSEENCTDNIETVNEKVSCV
Description: Compound was measured for the inhibition of [3H]ketanserin binding to rat frontal cortex membrane (5-HT2A receptor)
Regarding `O=C1CC(CN2CCC(c3noc4cc(F)ccc34)CC2)Cc2[nH]c3ccccc3c21` (stereo not drawn), the Ki is 1.58 nM.

For `COc1ccccc1N1CCN(CC2CC(=O)c3c([nH]c4ccccc34)C2)CC1` (stereo not drawn), the Ki is 631 nM.

The molecule `O=C1CC(CN2CCC(C(=O)c3ccc(F)cc3)CC2)Cc2[nH]c3ccccc3c21` (stereo not drawn) had a Ki of 9.12 nM.

By Ki is commonly meant the dissociation constant of the complex between target and ligand, obtained from inhibition or displacement.
